Assay results reported in US10399995B2, “1,4-Oxazines useful as selective BACE1 inhibitors” (Eli Lilly and Company, priority 2016, dated 2019).
Where two headings read alike, the source gives them in different places.

What was measured:
Human BACE1(1-460):Fc = target: T1, Human BACE1(1-460):Fc (Homo sapiens, UniProt P56817); assay: BACE1 FRET Assay; format: biochemical; conditions: purified recombinant huBACE1:Fc, pH 4.6, mean ± standard deviation of the mean, n=13
T1 construct: made in house; host or cells: HEK293 (transient transfection, purified from conditioned media by Protein A)
T1 sequence (P56817 22-460): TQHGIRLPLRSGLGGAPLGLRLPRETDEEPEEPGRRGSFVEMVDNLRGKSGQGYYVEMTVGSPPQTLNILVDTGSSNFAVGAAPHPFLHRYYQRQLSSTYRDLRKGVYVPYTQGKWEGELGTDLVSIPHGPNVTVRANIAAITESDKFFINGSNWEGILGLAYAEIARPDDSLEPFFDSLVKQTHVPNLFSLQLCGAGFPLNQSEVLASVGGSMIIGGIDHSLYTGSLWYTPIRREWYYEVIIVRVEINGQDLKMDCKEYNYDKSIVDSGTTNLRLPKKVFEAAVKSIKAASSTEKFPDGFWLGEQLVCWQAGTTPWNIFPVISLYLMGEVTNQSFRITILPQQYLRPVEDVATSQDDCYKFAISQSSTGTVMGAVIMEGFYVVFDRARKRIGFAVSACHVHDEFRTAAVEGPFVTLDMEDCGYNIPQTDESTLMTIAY
Procedure: (§1) To assess selectivity of BACE1 over BACE2, the test compound is evaluated in FRET assays using specific substrates for BACE1 and BACE2 as described below. For in vitro enzymatic and cellular assays, the test compound is prepared in DMSO to make up a 10 mM stock solution. The stock solution is serially diluted in DMSO to obtain a ten-point dilution curve with final compound concentrations ranging from 10 μM to 0.05 nM in a 96-well round-bottom plate before conducting the in vitro enzymatic and whole cell assays.
(§2) Human BACE1 (accession number: AF190725) and human BACE2 (accession number: AF 204944) are cloned from total brain cDNA by RT-PCR. The nucleotide sequences corresponding to amino acid sequences #1 to 460 are inserted into the cDNA encoding human IgG1 (Fc) polypeptide (Vassar et al., Science, 286, 735-742 (1999)). […]
(§3) Conditioned media of HEK293 cells transiently transfected with huBACE1:Fc or huBACE2:Fc cDNA are collected. […] The purity of the final product is assessed by electrophoresis in 4-20% Tris-Glycine SDS-PAGE. […]
Serial dilutions of the test compound are prepared as described above. […] The RFU of the mixture at time 0 is recorded at excitation wavelength 355 nm and emission wavelength 460 nm, after brief mixing on a plate shaker. […] The RFU at the end of incubation is recorded with the same excitation and emission settings used at time 0. […]

human BACE2 (1-460):Fc = target: T2, human BACE2 (1-460):Fc (Homo sapiens, UniProt Q9Y5Z0); assay: BACE2 TMEM27 FRET Assay; format: biochemical
T2 construct: made in house; host or cells: HEK293 (transient transfection, purified from conditioned media by Protein A)
T2 sequence (Q9Y5Z0 21-460): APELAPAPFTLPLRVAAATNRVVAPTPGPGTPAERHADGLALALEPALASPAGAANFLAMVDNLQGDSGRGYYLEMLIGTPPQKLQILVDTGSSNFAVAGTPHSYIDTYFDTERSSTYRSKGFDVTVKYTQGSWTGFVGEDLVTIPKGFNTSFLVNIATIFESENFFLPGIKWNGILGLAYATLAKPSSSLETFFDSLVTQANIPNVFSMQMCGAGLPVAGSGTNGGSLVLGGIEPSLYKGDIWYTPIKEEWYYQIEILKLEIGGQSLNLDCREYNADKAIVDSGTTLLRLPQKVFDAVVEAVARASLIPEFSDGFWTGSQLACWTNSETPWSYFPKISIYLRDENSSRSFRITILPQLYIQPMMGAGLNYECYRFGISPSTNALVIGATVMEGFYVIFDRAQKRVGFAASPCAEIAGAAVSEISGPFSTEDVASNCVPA
Procedure: as §1, §2, §3
Serial dilutions of test compound are prepared as described above. […] The RFU of the mixture at time 0 is recorded at excitation wavelength 430 nm and emission wavelength 535 nm. […] The RFU at the end of incubation is recorded with the same excitation and emission settings used at time 0. […]

BACE1 = target: T3, BACE1 (Homo sapiens, UniProt P56817); assay: SH-SY5YAPP695Wt Whole Cell Assay; format: cell-based; conditions: SH-SY5Y cells expressing human APP695Wt, 24 hours, conditioned media, mean ± standard deviation of the mean, n=3
T3 construct: endogenous in cells; host or cells: SH-SY5Y (ATCC CRL2266) stably expressing human APP695Wt
T3 sequence (P56817 46-501): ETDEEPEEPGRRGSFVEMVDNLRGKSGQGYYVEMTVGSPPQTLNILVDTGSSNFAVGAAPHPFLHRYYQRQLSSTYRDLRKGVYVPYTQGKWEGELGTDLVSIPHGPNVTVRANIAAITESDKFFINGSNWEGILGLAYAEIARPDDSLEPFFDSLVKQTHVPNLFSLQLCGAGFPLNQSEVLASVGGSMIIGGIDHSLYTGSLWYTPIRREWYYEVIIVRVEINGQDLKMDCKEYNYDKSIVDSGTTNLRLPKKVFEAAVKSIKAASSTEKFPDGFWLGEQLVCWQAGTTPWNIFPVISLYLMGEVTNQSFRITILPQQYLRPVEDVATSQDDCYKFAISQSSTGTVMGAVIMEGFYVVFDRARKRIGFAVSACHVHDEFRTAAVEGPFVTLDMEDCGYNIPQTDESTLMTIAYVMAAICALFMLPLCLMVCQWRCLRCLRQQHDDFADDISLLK
Procedure: as §1
The routine whole cell assay for the measurement of inhibition of BACE1 activity utilizes the human neuroblastoma cell line SH-SY5Y (ATCC Accession No. CRL2266) stably expressing a human APP695Wt cDNA. Cells are routinely used up to passage number 6 and then discarded.
SH-SY5YAPP695Wt cells are plated in 96 well tissue culture plates at 5.0×10^4 cells/well in 200 μL culture media (50% MEM/EBSS and Ham's F12, 1× each sodium pyruvate, non-essential amino acids and NaHCO3 containing 10% FBS). The following day, media is removed from the cells, fresh media added then incubated at 37° C. for 24 hours in the presenceabsence of test compound at the desired concentration range.
At the end of the incubation, conditioned media are analyzed for evidence of beta-secretase activity by analysis of Abeta peptides 1-40 and 1-42 by specific sandwich ELISAs. […]

`C[C@@]1(c2cc(NC(=O)c3nc4ccc(C#N)nc4s3)ccc2F)CO[C@@](C)(C(F)(F)F)C(N)=N1` [Example 1, N-[3-[(3R,6R)-5-Amino-3,6-dimethyl-6-(trifluoromethyl)-2H-1,4-oxazin-3-yl]-4-fluoro-phenyl]-5-cyano-thiazolo[5,4-b]pyridine-2-carboxamide] was tested. Which IC50 (Human BACE1(1-460):Fc) did it give?
Its IC50 is 8.18 nM.

What about the IC50 (human BACE2 (1-460):Fc; TMEM27 LucY FRET assay, huBACE2:Fc, pH 4.6, mean ± standard deviation of the mean, n=6) of the same compound?
Its IC50 is 446 nM.

And the “ratio of BACE1 (FRET IC50 enzyme assay) to BACE2 (TMEM27 LucY FRET assay)” value (human BACE2 (1-460):Fc; selectivity for BACE1 over BACE2)?
Its value is “approximately 50 fold”.

And the IC50 (BACE1; read-out: IC50 for SH-SY5YAPP695Wt A-beta (1-40) ELISA)?
Its IC50 is 1.88 nM.

And the IC50 (BACE1; read-out: IC50 for SH-SY5YAPP695Wt A-beta (1-42) ELISA)?
The IC50 was 3.55 nM.
